Test results from patent US12569532B2, “Brain function regulating agent, and food or beverage product containing same” (NITTA GELATIN INC., priority 2019, dated 2026).
Like-named read-outs stand apart in the source and are kept apart here. Where a SMILES comes first, the peptide text is derived from it. [ ]: non-standard residue; d: D form. Hyp = O=C(O)[C@@H]1C[C@@H](O)CN1

Experiments:
[1] = system: cerebellar granule cells (CGC); conditions: Wistar, rat, 6 days
Experimental: (§1) 15 to 25-week-old male and female Wistar rats were provided by purchase from CREA Japan, Inc. Thereafter, the rats were reared under the following conditions: the temperature was 23±2° C., the relative humidity was 55±10%, the lighting cycle was 12 hours, the light period started at 7:00 and ended at 19:00, and the rats were fed with a solid feed (“CE-2” (trade name) manufactured by CREA Japan, Inc) and allowed to freely access drinking water. Under the same conditions as described above, the rats were mated to obtain 7-day-old rats. Further, 3 to 8-day-old Wistar rats were provided by purchase from CREA Japan, Inc.
(§2) The Wistar rats were reared to the age of 7 to 9 days under the above-described conditions, and cerebella were then excised from these rats, and dispersed by the below-described method using the dispersion solutions shown in Table 4 (liquids I to V). In this way, dispersions containing granule cells and other cerebral nerve cells (hereinafter, these cells are also referred to collectively as “cerebellar granule cells (CGC)”) from the cerebella. The cerebellar granule cells (CGC) are cerebral nerve cells. Thereafter, the CGC contained in the dispersions was cultured. […] The method for preparing the cerebellar granule cells (CGC) is as follows.
(§3) First, ten of the 7 to 9-day-old rats were decapitated, and cerebella were excised in the clean bench, and then formed into minced paste with a razor after removal of unnecessary tissues, blood vessels, chorionic membranes and the like. Liquid I was added to the paste to give a suspension, and the suspension was centrifuged at 1,000 rpm for 30 seconds to obtain a first separate liquid containing a supernatant and a cell group. The supernatant was removed from the first separate liquid, liquid II pre-warmed to 37° C. in a thermostatic bath was then added to the remaining cell group little by little, and the mixture was stirred, transferred into a 50 mL medium bottle, and further stirred at 37° C. for 15 minutes to perform tissue digestion with trypsin.
(§4) Next, liquid IV was added to the medium bottle to deactivate the trypsin, and the mixture was centrifuged at 1,000 rpm for 30 seconds to obtain a second separate liquid containing a supernatant and a cell group. The supernatant was removed from the second separate liquid, and a small amount of liquid III was then added to the remaining cell group with a Pasteur pipette to disperse the cell group. Thereafter, the mixture was left standing for 15 minutes to obtain a third separate liquid containing a supernatant and a cell group, and the supernatant was taken into liquid V. To the cell group remaining in the third separate liquid, a small amount of liquid III was added to redisperse the cell group. Thereafter, the mixture was left standing for 5 to 10 minutes to obtain a fourth separate liquid containing a supernatant and a cell group, and the supernatant was taken into liquid V containing the supernatant of the third separate liquid.
(§5) Liquid V containing the supernatant of the third separate liquid and the supernatant of the fourth separate liquid was centrifuged at 1,000 rpm for 5 minutes to obtain a fifth separate liquid containing a supernatant and a cell group. The supernatant was removed from the fifth separate liquid, a basal medium (BME: Basal Medium Eagle manufactured by Sigma-Aldrich Co. LLC) was then added to the remaining cell group, and the mixture was stirred to obtain a mixed liquid containing cerebellar granule cells (CGC) and BME. Thereafter, the mixed liquid was stained with a trypan Blue solution with a concentration of 0.4 mass %, and the number of the stained cells and the viability thereof were measured.

[2] = system: cerebellar granule cells (CGC); conditions: Wistar, rat, 6 days; remark: listed apart in the source
Experimental: Next, K+5 mM serum (+) BME was added to the mixed liquid in such a manner that the cell density of living cells was 1.2×10^5 cells/mL, and the mixture was suspended to obtain a culture sample. The culture sample was seeded at 0.766 mL per well in a 12-well plate pre-coated with poly-L-lysin (PLL) with a concentration of 50 μg/mL, and was cultured in an incubator environment of CO2 with a concentration of 5 vol % at 37° C.
On day 1 after the start of culture, to each well was added cytosine β-D-arabinofuranoside (AraC) to a final concentration of 10 μM for the purpose of suppressing growth of non-neuronal cells while maintaining only CGC. Further, in the below-described control sample, KCl was added to a final concentration of 25 mM. In other samples (samples containing the peptides or amino acids shown in Tables 5 to 7 below), KCl was added with an adjustment made to a final concentration of 15 mM.
Specifically, the percent ratio of the number of living cells in each sample to the number of living cells in the control sample having a KCl concentration of 25 mM was determined, and subjected to statistical processing to evaluate significance of the differentiation promoting action on CGC. […]

[3] = system: cerebellar granule cells (CGC); assay: Evaluation Test 2: viability of primary-cultured CGC by MTT assay (differentiation promoting action); conditions: for Viability (%): KCl 15 mM, MTT day 7, percent of control sample with KCl 25 mM
Experimental: as §1, §2, §3, §4, §5

rats = conditions: when transferred into the cerebrospinal fluid, NPL 2; cited from earlier work
[4] = system: PC12 cells derived from a rat adrenal pheochromocytoma; conditions: PTL 2; cited from earlier work

Row | Molecule | Viability (%) ([1]; 0.1 μM) | Viability (%) ([1]; 1 μM) | Viability (%) ([1]; 10 μM) | Viability (%) ([1]; 100 μM) | Viability (%) ([1]; 1000 μM) | other results
1 | C[C@H](N)C(=O)N1C[C@H](O)C[C@H]1C(=O)O [AO] (H-Ala-[Hyp]-OH; N-terminus and C-terminus assumed) | 55.1% | 57.0% | 66.1% | 64.7% | 65.9% | 
2 | O=C(O)CC[C@@H]1NC(=O)[C@@H]2C[C@@H](O)CN2C1=O [C-EO] | 51.3% | 52.0% | 64.8% | 65.0% | 69.3% | 
3 | O=C1NCC(=O)N2CCC[C@@H]12 [C-GP] |  |  | 51.2% | 46.4% | 53.3% | 
4 | O=C1N[C@@H](Cc2cnc[nH]2)C(=O)N2CCC[C@@H]12 [C-HP] |  |  | 65.1% | 63.9% | 69.2% | 
5 | O=C1NCC(=O)N2C[C@H](O)C[C@@H]12 [C-OG] | 57.8% | 63.2% | 54.2% | 50.1% | 62.7% | 
6 | O=C1[C@@H]2C[C@@H](O)CN2C(=O)[C@@H]2CCCN12 [C-PO] | 55.7% | 58.4% | 73.2% | 70.6% | 68.4% | 
7 | N[C@@H](CCC(=O)O)C(=O)N1C[C@H](O)C[C@H]1C(=O)NCC(=O)O [EOG, Glu-Hyp-Gly] (H-Glu-[Hyp]-Gly-OH; N-terminus and C-terminus assumed) | 69.9% |  |  | 74.4% | 77.7% | Viability (%) ([2]; 3 μM): 67.2%; Viability (%) ([2]; 7 μM): 72.7%
8 | N[C@@H](CCC(=O)O)C(=O)N1C[C@H](O)C[C@H]1C(=O)O [EO] (H-Glu-[Hyp]-OH; N-terminus and C-terminus assumed) | 52.9% | 54.8% | 86.8% | 81.2% | 86.7% | 
9 | NCC(=O)N1CCC[C@H]1C(=O)N1C[C@H](O)C[C@H]1C(=O)O [GPO] (H-Gly-Pro-[Hyp]-OH) |  |  |  |  |  | Viability (%) ([3]; 0.1 μM added days 1 and 4): 56.3%; Viability (%) ([3]; 1 μM added days 1 and 4): 58.4%; Viability (%) ([3]; 10 μM added days 1 and 4): 59.0%; Viability (%) ([3]; 100 μM added days 1 and 4): 55.8%; Viability (%) ([3]; 1000 μM added days 1 and 4): 61.5%
10 | NCC(=O)N1CCC[C@H]1C(=O)O [GP] (H-Gly-Pro-OH; N-terminus and C-terminus assumed) |  |  |  |  |  | Viability (%) ([3]; 0.1 μM added days 1 and 4): 48.4%; Viability (%) ([3]; 1 μM added days 1 and 4): 61.2%; Viability (%) ([3]; 10 μM added days 1 and 4): 65.7%; Viability (%) ([3]; 100 μM added days 1 and 4): 63.4%; Viability (%) ([3]; 1000 μM added days 1 and 4): 72.2%
11 | N[C@@H](CCC(=O)O)C(=O)O [Glutamic acid, glutamic acid] |  |  |  |  |  | viability at 10 µM ([3]; Rattus norvegicus, 168 h): 58.1%; viability at 100 µM ([3]; Rattus norvegicus, 168 h): 52.4%; viability at 1000 µM ([3]; Rattus norvegicus, 168 h): 42.4%
12 | N[C@@H](CCC(=O)N[C@@H](CS)C(=O)NCC(=O)O)C(=O)O [Glutathione, glutathione] |  |  |  |  |  | Viability (%) ([3]; 0.01 μM added days 1 and 4): 73.9%; Viability (%) ([3]; 0.1 μM added days 1 and 4): 63.5%; Viability (%) ([3]; 1 μM added days 1 and 4): 63.5%; Viability (%) ([3]; 10 μM added days 1 and 4): 63.6%; Viability (%) ([3]; 100 μM added days 1 and 4): 60.0%; Viability (%) ([3]; 1000 μM added days 1 and 4): 67.1%
13 | CN[C@H](CC(=O)O)C(=O)O [NMDA, N-methyl-D-aspartic acid] |  |  |  |  |  | viability at 100 µM ([3]; Rattus norvegicus, 168 h): 93.4%
14 | O=C(O)CNC(=O)[C@@H]1C[C@@H](O)CN1 [OG] (H-[Hyp]-Gly-OH) |  |  |  |  |  | Viability (%) ([3]; 0.1 μM added days 1 and 4): 54.5%; Viability (%) ([3]; 1 μM added days 1 and 4): 61.8%; Viability (%) ([3]; 10 μM added days 1 and 4): 77.6%; Viability (%) ([3]; 100 μM added days 1 and 4): 72.8%; Viability (%) ([3]; 1000 μM added days 1 and 4): 71.1%
15 | O=C(O)[C@@H]1C[C@@H](O)CN1C(=O)[C@@H]1CCCN1 [PO, Pro-Hyp] (H-Pro-[Hyp]-OH; N-terminus and C-terminus assumed) | 52.6% | 51.8% | 76.3% | 72.9% | 74.0% | antidepressant effect (rats): exhibited an antidepressant effect
16 | BDNF: brain-derived neurotrophic factor, Reference Example |  |  |  |  |  | Viability (%) ([3]; 100 ng/mL added days 1 and 4): 76.6%
17 | Gly-Pro-Ala |  |  |  |  |  | neurogenesis promoting action [4]: has a neurogenesis promoting action
18 | IGF-1: listed in Table 5 only, not explained in the text |  |  |  |  |  | Viability (%) ([3]; 100 ng/mL added days 1 and 4): 67.1%
